Experimental data from publication PMC6099693, “Design, Synthesis, and In Vitro Evaluation of Novel Histone H3 Peptide-Based LSD1 Inactivators Incorporating α,α-Disubstituted Amino Acids with γ-Turn-Inducing Structures” (Molecules : A Journal of Synthetic Chemistry and Natural …, 2018).
*1 amine or outer side, *2 acyl side, *3 side chain or, on linkers, in order; H or OH if unused. Where a SMILES comes first, the peptide text is derived from it. [ ]: non-standard residue; d: D form. Lys((1R,2S)-2-Ph-cPr) = N[C@@H](CCCCN[C@@H]1C[C@H]1c1ccccc1)C(=O)O; X1 = O=C(C1(N[*:1])C2CC3CC(C2)CC1C3)[*:2]; Ac6c = NC1(C(=O)O)CCCCC1; Aib = CC(C)(N)C(=O)O

Experiments:
Type in all cases: biochemical
[1] = target: T1, MAO-A (Homo sapiens, UniProt P21397); test: MAO-Glo assay, MAO-A inhibitory activity; settings: for IC50: Promega V1401, MAO-A 18 units/mL, substrate 160 µM, room temperature, 60 min, chemiluminescence, means ± S.D. of at least three experiments
T1 construct: purchased Sigma-Aldrich
T1 sequence (P21397 1-527): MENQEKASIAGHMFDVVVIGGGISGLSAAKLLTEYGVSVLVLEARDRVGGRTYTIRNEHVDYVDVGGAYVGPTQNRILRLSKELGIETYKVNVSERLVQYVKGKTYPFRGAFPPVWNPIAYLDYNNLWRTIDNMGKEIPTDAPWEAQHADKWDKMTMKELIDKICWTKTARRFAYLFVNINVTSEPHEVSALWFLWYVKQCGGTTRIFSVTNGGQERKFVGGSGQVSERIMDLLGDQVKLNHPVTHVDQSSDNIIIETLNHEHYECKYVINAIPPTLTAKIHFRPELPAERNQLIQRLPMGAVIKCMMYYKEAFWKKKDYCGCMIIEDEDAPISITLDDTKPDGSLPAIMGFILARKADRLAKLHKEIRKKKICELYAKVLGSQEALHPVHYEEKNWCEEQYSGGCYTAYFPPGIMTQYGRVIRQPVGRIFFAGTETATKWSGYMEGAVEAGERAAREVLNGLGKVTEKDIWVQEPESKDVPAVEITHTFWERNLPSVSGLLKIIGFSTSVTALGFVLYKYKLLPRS
Protocol: (§1) We assayed for the LSD1 inhibitory activities of novel peptides 2a–c. The assay was performed with an LSD1 Fluorometric Drug Discovery Kit (Enzo Life Sciences, New York, NY, USA, BML-AK544-0001). […] Next, we examined the time-dependency of LSD1 inhibition by peptides 2a–c. […] We also assayed for the inhibitory activities of monoamine oxidases (MAOs), which are FAD-dependent oxidases associated with neurotransmitter metabolism, to investigate the selectivity toward LSD1. For this investigation, we used a MAO-Glo^TM Assay System (Promega, Madison, WI, USA, V1401).
(§2) Assays for MAO inhibitory activity were carried out according to the supplier’s protocol using a MAO-Glo^TM Assay System (Promega, V1401). […] Reactions were stopped after 60 min by adding reconstituted Luciferin Detection Reagent (50 µL/well). Then, 20 min after the addition of this reagent, the chemiluminescence of the wells was measured with a 2030 ARVO^TM X3 Multilabel Reader (PerkinElmer). For data processing, the same procedure as that for LSD1 inhibitory activity was used.

[2] = target: T2, LSD1 (Homo sapiens, UniProt O60341); test: LSD1 Fluorometric Drug Discovery Kit, LSD1 inhibitory activity; settings: for IC50: Enzo BML-AK544-0001 kit, 15 min pre-incubation with LSD1 (0.5 µg/well), room temperature, H3K4me2 peptide 20 µM, 30 min, fluorescence 540/590 nm, means ± S.D. of at least three experiments; for LSD1 inhibitory activity: comparison within Table 1
T2 construct: purchased Enzo Life Sciences BML-AK544-0001
Protocol: The assay was performed with an LSD1 Fluorometric Drug Discovery Kit (Enzo Life Sciences, New York, NY, USA, BML-AK544-0001). […] We also assayed for the inhibitory activities of monoamine oxidases (MAOs), which are FAD-dependent oxidases associated with neurotransmitter metabolism, to investigate the selectivity toward LSD1. For this investigation, we used a MAO-Glo^TM Assay System (Promega, Madison, WI, USA, V1401).
Inhibitors were pre-incubated with LSD1 (0.5 µg/well; room temperature; 15 min) before reactions were initiated by the addition of H3K4me2 peptide (2.3 µg/well, 20 µM) into all wells except the blank. After incubation (room temperature; 30 min), CeLLestial^TM Red and HRP in the assay buffer were added and the incubation was prolonged (room temperature; 5 min). […] IC50 values were determined by regression analysis of the concentration/inhibition data.

[3] = target: T3, MAO-B (Homo sapiens, UniProt P27338); test: MAO-Glo assay, MAO-B inhibitory activity; settings: Promega V1401; MAO-B 6 units/mL, substrate 16 µM; room temperature, 60 min; chemiluminescence; means ± S.D. of at least three experiments
T3 construct: purchased Sigma-Aldrich
T3 sequence (P27338 1-520): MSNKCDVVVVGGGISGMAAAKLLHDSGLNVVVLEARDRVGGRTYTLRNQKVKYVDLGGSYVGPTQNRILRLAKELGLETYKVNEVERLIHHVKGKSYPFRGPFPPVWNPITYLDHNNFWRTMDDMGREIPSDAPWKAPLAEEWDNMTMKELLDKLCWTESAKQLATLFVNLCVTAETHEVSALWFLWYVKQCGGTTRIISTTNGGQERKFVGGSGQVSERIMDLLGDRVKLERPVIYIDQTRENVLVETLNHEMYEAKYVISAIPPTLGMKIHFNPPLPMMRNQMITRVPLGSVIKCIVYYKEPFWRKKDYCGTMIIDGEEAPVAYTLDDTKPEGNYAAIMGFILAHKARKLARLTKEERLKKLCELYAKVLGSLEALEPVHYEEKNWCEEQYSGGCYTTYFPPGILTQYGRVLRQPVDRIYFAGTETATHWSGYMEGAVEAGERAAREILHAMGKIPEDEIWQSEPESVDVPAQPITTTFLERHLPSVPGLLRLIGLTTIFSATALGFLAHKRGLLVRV
Protocol: as §1, §2

Row | SMILES | IC50 [2] | IC50 [1] | IC50 [3] | LSD1 selectivity ([2]; LSD1 selectivity, MAO-A/MAO-B assayed for selectivity toward LSD1) | MAO-A inactivation ([1]; peptides at 10 µM, PCPA as positive control) | LSD1 inhibitory activity [2]
1 | N[C@@H]1C[C@H]1c1ccccc1 (relative stereo) [PCPA, trans-2-phenylcyclopropylamine, reference compound] |  |  |  |  | inactivated both MAO-A and MAO-B | 
2 | C[C@H](N)C(=O)N[C@@H](CCCNC(=N)N)C(=O)N[C@H](C(=O)N[C@@H](CCCCN[C@@H]1C[C@H]1c1ccccc1)C(=O)N[C@@H](CCC(N)=O)C(=O)N[C@H](C(=O)N[C@@H](C)C(=O)N[C@@H](CCCNC(=N)N)C(=O)N[C@@H](CCCCN)C(=O)N[C@@H](CO)C(=O)N[C@H](C(=O)O)[C@@H](C)O)[C@@H](C)O)[C@@H](C)O [peptide 1, reference compound] | 0.126 ± 0.002 µM | > 10 µM | > 10 µM |  |  | inactivated LSD1 potently compared to PCPA

Continued, in another order:

Row | IC50 [2] | IC50 [1] | IC50 [3] | LSD1 selectivity ([2]; LSD1 selectivity, MAO-A/MAO-B assayed for selectivity toward LSD1) | SMILES | MAO-A inactivation ([1]; peptides at 10 µM, PCPA as positive control) | LSD1 inhibitory activity [2]
3 | 0.0724 ± 0.004 µM | > 10 µM | > 10 µM |  | C[C@H](N)C(=O)N[C@@H](CCCNC(=N)N)C(=O)NC1(C(=O)N[C@@H](CCCCN[C@@H]2C[C@H]2c2ccccc2)C(=O)NC2(C(=O)N[C@H](C(=O)N[C@@H](C)C(=O)N[C@@H](CCCNC(=N)N)C(=O)N[C@@H](CCCCN)C(=O)N[C@@H](CO)C(=O)N[C@H](C(=O)O)[C@@H](C)O)[C@@H](C)O)C3CC4CC(C3)CC2C4)C2CC3CC(C2)CC1C3 (stereo partly drawn) [2c] (H-AR[X1][Lys((1R,2S)-2-Ph-cPr)][X1]TARKST-OH; C-terminus assumed) |  | 
4 | 0.0891 ± 0.0053 µM | > 10 µM | > 10 µM |  | C[C@H](N)C(=O)N[C@@H](CCCNC(=N)N)C(=O)NC(C)(C)C(=O)N[C@@H](CCCCN[C@@H]1C[C@H]1c1ccccc1)C(=O)NC(C)(C)C(=O)N[C@H](C(=O)N[C@@H](C)C(=O)N[C@@H](CCCNC(=N)N)C(=O)N[C@@H](CCCCN)C(=O)N[C@@H](CO)C(=O)N[C@H](C(=O)O)[C@@H](C)O)[C@@H](C)O [peptide 2a] (H-AR[Aib][Lys((1R,2S)-2-Ph-cPr)][Aib]TARKST-OH; C-terminus assumed) |  | 
5 | 0.0584 ± 0.0025 µM | > 10 µM | > 10 µM | > 170 fold | C[C@H](N)C(=O)N[C@@H](CCCNC(=N)N)C(=O)NC1(C(=O)N[C@@H](CCCCN[C@@H]2C[C@H]2c2ccccc2)C(=O)NC2(C(=O)N[C@H](C(=O)N[C@@H](C)C(=O)N[C@@H](CCCNC(=N)N)C(=O)N[C@@H](CCCCN)C(=O)N[C@@H](CO)C(=O)N[C@H](C(=O)O)[C@@H](C)O)[C@@H](C)O)CCCCC2)CCCCC1 [peptide 2b] (H-AR[Ac6c][Lys((1R,2S)-2-Ph-cPr)][Ac6c]TARKST-OH; C-terminus assumed) |  | the most potent LSD1 inactivator among the peptides tested in this study
